Legend:
[1] = target: T1, mTOR (Homo sapiens, UniProt P42345); assay: Biochemical assay for m-TOR by TR-FRET; settings: 8 μM ATP, 400 nM GFP-4EBP1, 0.5 nM mTOR
T1 construct: purchased Invitrogen Corporation (Carlsbad/CA, USA) PV4753
Procedure, shortened: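 TR-FRET detection of pThr46 on GFP-4EBP1 (400 nM final) using Tb3+-labelled antibody (0.5 nM), added with EDTA to stop reactions. Reactions ran at rt with 0.5 nM mTOR and 8 μM ATP (final) in HEPES pH 7.5 buffer containing 10 mM MnCl2.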

[2] = target: T2, PI3K alpha (Homo sapiens, UniProt P42336); assay: PI3K alpha kinase assay (Kinase-Glo luminescence); assay type: biochemical
T2 construct: p85(iSH2) fusion partner (see partner chain) (N); His tag (C); made in house; host or cells: baculovirus; Tn5 (Trichoplusia ni) or TiniPro insect cells
T2 sequence (P42336 with tags, fused parts or gaps limits assumed): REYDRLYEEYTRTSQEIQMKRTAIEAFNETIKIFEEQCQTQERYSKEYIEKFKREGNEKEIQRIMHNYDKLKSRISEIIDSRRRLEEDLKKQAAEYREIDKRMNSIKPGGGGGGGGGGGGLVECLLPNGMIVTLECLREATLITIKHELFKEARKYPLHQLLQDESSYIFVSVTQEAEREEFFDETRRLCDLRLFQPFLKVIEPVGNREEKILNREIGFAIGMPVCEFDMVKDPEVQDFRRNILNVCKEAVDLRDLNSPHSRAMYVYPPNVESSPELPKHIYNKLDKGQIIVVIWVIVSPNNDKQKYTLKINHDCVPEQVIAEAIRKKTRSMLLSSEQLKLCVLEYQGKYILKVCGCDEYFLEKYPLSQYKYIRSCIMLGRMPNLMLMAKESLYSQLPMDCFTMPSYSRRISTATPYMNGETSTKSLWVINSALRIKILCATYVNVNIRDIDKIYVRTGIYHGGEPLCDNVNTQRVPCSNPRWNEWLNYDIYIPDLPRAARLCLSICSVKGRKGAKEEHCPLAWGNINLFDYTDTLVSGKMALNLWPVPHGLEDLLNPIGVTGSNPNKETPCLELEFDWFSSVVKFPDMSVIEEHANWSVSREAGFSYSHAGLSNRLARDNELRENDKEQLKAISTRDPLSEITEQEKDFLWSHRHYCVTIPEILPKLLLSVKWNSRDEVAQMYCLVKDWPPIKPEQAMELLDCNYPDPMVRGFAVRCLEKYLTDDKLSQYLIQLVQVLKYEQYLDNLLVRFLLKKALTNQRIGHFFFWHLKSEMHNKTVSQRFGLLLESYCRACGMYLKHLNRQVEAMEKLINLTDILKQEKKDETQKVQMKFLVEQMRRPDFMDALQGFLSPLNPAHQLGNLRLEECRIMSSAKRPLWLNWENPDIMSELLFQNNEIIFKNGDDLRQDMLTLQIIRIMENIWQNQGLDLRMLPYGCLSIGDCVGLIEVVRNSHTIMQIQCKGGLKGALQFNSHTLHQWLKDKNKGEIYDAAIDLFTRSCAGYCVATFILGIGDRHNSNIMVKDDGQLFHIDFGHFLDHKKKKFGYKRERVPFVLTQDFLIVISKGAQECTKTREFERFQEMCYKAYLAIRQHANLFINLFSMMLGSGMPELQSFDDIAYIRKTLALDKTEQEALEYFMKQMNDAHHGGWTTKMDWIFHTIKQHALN
Procedure, shortened: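 PI3Kα construct EMV B1075 (10 nM final) was preincubated with 10 μg/mL phosphatidylinositol in 10 mM Tris-HCl pH 7.5, 3 mM MgCl2, 50 mM NaCl, 0.05% CHAPS, 1 mM DTT. Reaction started with 1 μM ATP, 60 min at room temperature; remaining ATP measured by Kinase-Glo luminescence. IC50 from 4-parameter logistic fit of 8-point titrations.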

[3] = target: T3, PI3K beta (Homo sapiens, UniProt P42338); assay: PI3K beta kinase assay (Kinase-Glo luminescence); assay type: biochemical
T3 construct: for the full-length p110-b subunit are generated and fused by overlapping PCR; p85(iSH2) fusion partner (see partner chain) (N); His tag (C); made in house; host or cells: baculovirus; Tn5 (Trichoplusia ni) or TiniPro insect cells
T3 sequence (P42338 with tags, fused parts or gaps limits assumed): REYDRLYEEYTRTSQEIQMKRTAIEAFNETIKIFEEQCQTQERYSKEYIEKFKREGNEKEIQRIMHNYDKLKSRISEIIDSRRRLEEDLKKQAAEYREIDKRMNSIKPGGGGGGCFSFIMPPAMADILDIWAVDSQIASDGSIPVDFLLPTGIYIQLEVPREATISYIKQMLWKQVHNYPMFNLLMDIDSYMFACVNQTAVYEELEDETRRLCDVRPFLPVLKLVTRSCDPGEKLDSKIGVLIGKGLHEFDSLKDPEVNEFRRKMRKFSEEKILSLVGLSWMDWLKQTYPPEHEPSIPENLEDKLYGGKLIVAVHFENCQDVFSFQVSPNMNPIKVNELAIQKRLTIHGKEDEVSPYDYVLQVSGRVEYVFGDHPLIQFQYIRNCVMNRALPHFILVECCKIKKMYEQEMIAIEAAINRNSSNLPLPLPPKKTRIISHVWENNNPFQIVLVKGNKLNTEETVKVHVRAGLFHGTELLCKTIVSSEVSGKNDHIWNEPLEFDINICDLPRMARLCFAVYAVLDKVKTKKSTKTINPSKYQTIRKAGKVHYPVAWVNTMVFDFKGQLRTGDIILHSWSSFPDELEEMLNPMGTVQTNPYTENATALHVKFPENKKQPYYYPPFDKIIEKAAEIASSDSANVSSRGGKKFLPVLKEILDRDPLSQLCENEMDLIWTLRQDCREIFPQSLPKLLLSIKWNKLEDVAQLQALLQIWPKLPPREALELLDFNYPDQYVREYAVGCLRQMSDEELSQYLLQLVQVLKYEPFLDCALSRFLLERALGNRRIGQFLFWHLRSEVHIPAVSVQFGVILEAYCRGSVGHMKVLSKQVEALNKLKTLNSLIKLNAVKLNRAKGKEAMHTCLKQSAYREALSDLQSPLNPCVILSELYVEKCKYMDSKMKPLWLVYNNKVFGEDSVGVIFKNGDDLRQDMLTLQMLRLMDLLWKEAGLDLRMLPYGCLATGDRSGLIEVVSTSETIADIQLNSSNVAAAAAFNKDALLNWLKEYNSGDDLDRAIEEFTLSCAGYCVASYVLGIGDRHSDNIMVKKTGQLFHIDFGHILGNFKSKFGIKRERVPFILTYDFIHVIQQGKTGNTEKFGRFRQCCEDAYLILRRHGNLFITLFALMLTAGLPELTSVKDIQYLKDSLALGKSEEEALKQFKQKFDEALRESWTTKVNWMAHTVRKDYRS
Procedure, shortened: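 Residual ATP after a 60 min room-temperature reaction is quantified by Kinase-Glo luminescence. Enzyme: 25 nM BV-949 (p85 iSH2–linker–full-length p110β); substrates 1 μM ATP, 10 μg/mL PI; buffer Tris pH 7.5, MgCl2, NaCl, CHAPS, DTT. Eight concentrations per compound, four-parameter logistic IC50.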

T1 sequence (P42345 1360-2549 limits assumed): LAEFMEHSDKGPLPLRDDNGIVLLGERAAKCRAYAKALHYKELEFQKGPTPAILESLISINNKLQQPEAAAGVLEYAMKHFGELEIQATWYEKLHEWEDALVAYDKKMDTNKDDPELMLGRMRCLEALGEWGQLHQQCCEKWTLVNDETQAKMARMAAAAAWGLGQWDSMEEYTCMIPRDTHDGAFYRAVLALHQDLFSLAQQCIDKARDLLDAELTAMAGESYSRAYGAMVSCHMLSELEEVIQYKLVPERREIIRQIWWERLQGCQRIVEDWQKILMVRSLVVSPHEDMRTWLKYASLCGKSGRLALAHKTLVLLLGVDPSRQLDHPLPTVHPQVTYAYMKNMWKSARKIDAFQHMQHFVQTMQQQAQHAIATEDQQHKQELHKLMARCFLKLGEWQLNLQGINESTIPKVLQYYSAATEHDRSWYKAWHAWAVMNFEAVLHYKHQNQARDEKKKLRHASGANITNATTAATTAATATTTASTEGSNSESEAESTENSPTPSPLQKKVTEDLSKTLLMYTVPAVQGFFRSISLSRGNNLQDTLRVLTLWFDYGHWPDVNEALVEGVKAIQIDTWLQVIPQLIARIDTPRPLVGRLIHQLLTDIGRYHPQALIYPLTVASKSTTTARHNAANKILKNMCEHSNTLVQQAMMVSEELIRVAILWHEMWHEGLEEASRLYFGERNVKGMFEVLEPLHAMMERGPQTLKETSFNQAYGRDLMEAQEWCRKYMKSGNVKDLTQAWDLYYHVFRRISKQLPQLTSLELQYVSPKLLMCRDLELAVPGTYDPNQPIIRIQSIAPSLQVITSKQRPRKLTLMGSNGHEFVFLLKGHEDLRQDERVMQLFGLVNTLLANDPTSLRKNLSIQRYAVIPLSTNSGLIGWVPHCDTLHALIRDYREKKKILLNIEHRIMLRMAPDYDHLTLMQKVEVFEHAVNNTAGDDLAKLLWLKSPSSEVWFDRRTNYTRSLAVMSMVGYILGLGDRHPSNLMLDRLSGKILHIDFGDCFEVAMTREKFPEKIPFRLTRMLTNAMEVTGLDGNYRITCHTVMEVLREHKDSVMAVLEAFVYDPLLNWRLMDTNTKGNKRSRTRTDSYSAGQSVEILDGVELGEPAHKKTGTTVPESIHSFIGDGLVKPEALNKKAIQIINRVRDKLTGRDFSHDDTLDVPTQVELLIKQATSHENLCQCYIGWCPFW

| Compound | IC50 [1] [nM] | IC50 [2] [nM] | IC50 [3] [nM] |
| --- | --- | --- | --- |
| CCNc1cc(-c2ccc3ncc4c(c3c2)n(-c2c(C)nn(CCOC)c2C)c(=O)n4C)cnc1C [Example 87.4, 8-(5-Ethylamino-6-methyl-pyridin-3-yl)-1-[1-(2-methoxy-ethyl)-3,5-dimethyl-1H-pyrazol-4-yl]-3-methyl-1,3-dihydro-imidazo[4,5-c]quinolin-2-one] | 77 | 42 | 93 |
| Cc1noc(C)c1-n1c(=O)n(C)c2cnc3ccc(-c4cnc(N)c(C(F)(F)F)c4)cc3c21 [Example 25.5, 8-(6-Amino-5-trifluoromethyl-pyridin-3-yl)-1-(3,5-dimethyl-isoxazol-4-yl)-3-methyl-1,3-dihydro-imidazo[4,5-c]quinolin-2-one] | 432 | 30 | 30 |
| C=CCn1c(=O)n(-c2cn(C)nc2C)c2c3cc(-c4cncc(N)c4)ccc3ncc21 [Example 246, 3-Allyl-8-(5-amino-pyridin-3-yl)-1-(1,3-dimethyl-1H-pyrazol-4-yl)-1,3-dihydro-imidazo[4,5-c]quinolin-2-one] | 147 | 28 | 82 |
| Cc1nn(C)cc1-n1c(=O)n(C)c2cnc3ccc(-c4ccc(N5CCN(C)CC5)nc4)cc3c21 [Example 96, 1-(1,3-Dimethyl-1H-pyrazol-4-yl)-3-methyl-8-[6-(4-methyl-piperazin-1-yl)-pyridin-3-yl]-1,3-dihydro-imidazo[4,5-c]quinolin-2-one] | 87 | 47 | 544 |
| CCOCc1cc(-c2ccc3ncc4c(c3c2)n(-c2cn(CC)nc2C)c(=O)n4C)cnc1N [Example 166.2, 8-(6-Amino-5-ethoxymethyl-pyridin-3-yl)-1-(1-ethyl-3-methyl-1H-pyrazol-4-yl)-3-methyl-1,3-dihydro-imidazo[4,5-c]quinolin-2-one] | 55 | 15 | 81 |
| Cc1nn(C)cc1-n1c(=O)n(C)c2cnc3ccc(-c4cncnc4)cc3c21 [Example 26, 1-(1,3-Dimethyl-1H-pyrazol-4-yl)-3-methyl-8-pyrimidin-5-yl-1,3-dihydro-imidazo[4,5-c]quinolin-2-one] | 112 | 103 | 517 |
| Cc1nn(C)cc1-n1c(=O)n(C)c2cnc3ccc(-c4cncc(S(C)(=O)=O)c4)cc3c21 [Example 22, 1-(1,3-Dimethyl-1H-pyrazol-4-yl)-8-(5-methanesulfonyl-pyridin-3-yl)-3-methyl-1,3-dihydro-imidazo[4,5-c]quinolin-2-one] | 121 | 6 | 11 |
| Cc1nn(CC(=O)N(C)C)c(C)c1-n1c(=O)n(C)c2cnc3ccc(-c4cnc(N)c(C(F)(F)F)c4)cc3c21 [Example 25.2, 2-{4-[8-(6-Amino-5-trifluoromethyl-pyridin-3-yl)-3-methyl-2-oxo-2,3-dihydro-imidazo[4,5-c]quinolin-1-yl]-3,5-dimethyl-pyrazol-1-yl}-N,N-dimethyl-acetamide] | 152 | 13 | 578 |
| COc1ccc(-c2ccc3ncc4c(c3c2)n(-c2c(C)nn(C)c2C)c(=O)n4C)cc1OC [Example 1.9, 8-(3,4-Dimethoxy-phenyl)-3-methyl-1-(1,3,5-trimethyl-1H-pyrazol-4-yl)-1,3-dihydro-imidazo[4,5-c]quinolin-2-one] | 308 | 28 | 39 |
| Cc1nn(C)cc1-n1c(=O)n(C)c2cnc3ccc(-c4cnc(N)c(C(=O)NC(C)C)c4)cc3c21 [Example 225, 2-Amino-5-[1-(1,3-dimethyl-1H-pyrazol-4-yl)-3-methyl-2-oxo-2,3-dihydro-1H-imidazo[4,5-c]quinolin-8-yl]-N-isopropyl-nicotinamide] | 26 | 20 | 44 |
| COc1ncc(-c2ccc3ncc4c(c3c2)n(-c2cn(C(C)C)nc2C)c(=O)n4C)c(OC)n1 [Example 234.3, 8-(2,4-Dimethoxy-pyrimidin-5-yl)-1-(1-isopropyl-3-methyl-1H-pyrazol-4-yl)-3-methyl-1,3-dihydro-imidazo[4,5-c]quinolin-2-one] | 17 | 15 | 150 |
| COc1ccc(-c2ccc3ncc4c(c3c2)n(-c2ccnn2C)c(=O)n4C)cn1 [Example 2.2, 8-(6-Methoxy-pyridin-3-yl)-3-methyl-1-(2-methyl-2H-pyrazol-3-yl)-1,3-dihydro-imidazo[4,5-c]quinolin-2-one] | 347 | 62 | 278 |

Molecules with a lower IC50 [1], results first:

| IC50 [1] [nM] | IC50 [2] [nM] | IC50 [3] [nM] | Compound |
| --- | --- | --- | --- |
| 5 | 17 | 33 | Cc1nn(C)cc1-n1c(=O)n(C)c2cnc3ccc(-c4cnc(Cl)c(N)c4)cc3c21 [Example 152.2, 8-(5-Amino-6-chloro-pyridin-3-yl)-1-(1,3-dimethyl-1H-pyrazol-4-yl)-3-methyl-1,3-dihydro-imidazo[4,5-c]quinolin-2-one] |
| < 3 | 9 | 32 | Cc1nn(C)cc1-n1c(=O)n(C)c2cnc3ccc(-c4cnc5[nH]ccc5c4)cc3c21 [Example 36, 1-(1,3-dimethyl-1H-pyrazol-4-yl)-3-methyl-8-(1H-pyrrolo[2,3-b]pyridin-5-yl)-1,3-dihydro-imidazo[4,5-c]quinolin-2-one] |
| 6 | 12 | 16 | Cc1nn(C(C)C)cc1-n1c(=O)n(C)c2cnc3ccc(-c4cnc(N)c(C(F)(F)F)c4)cc3c21 [Example 25.4, 8-(6-Amino-5-trifluoromethyl-pyridin-3-yl)-1-(1-isopropyl-3-methyl-1H-pyrazol-4-yl)-3-methyl-1,3-dihydro-imidazo[4,5-c]quinolin-2-one] |
| 3 | 14 | 18 | Cc1nn(C)cc1-n1c(=O)n(C)c2cnc3ccc(-c4cncc(NC(C)C)c4)cc3c21 [Example 177.1, 1-(1,3-Dimethyl-1H-pyrazol-4-yl)-8-(5-isopropylamino-pyridin-3-yl)-3-methyl-1,3-dihydro-imidazo[4,5-c]quinolin-2-one] |
| 3 | 14 | 21 | CCNc1cc(-c2ccc3ncc4c(c3c2)n(-c2cn(C)nc2C)c(=O)n4C)cnc1C [Example 87.1, 1-(1,3-Dimethyl-1H-pyrazol-4-yl)-8-(5-ethylamino-6-methyl-pyridin-3-yl)-3-methyl-1,3-dihydro-imidazo[4,5-c]quinolin-2-one] |
| 9 | 16 | 123 | CCOc1ccc(-c2ccc3ncc4c(c3c2)n(-c2cn(C)nc2Cl)c(=O)n4C)cn1 [Example 3.8, 1-(3-Chloro-1-methyl-1H-pyrazol-4-yl)-8-(6-ethoxy-pyridin-3-yl)-3-methyl-1,3-dihydro-imidazo[4,5-c]quinolin-2-one] |
| 12 | 14 | 34 | COCc1cc(-c2ccc3ncc4c(c3c2)n(-c2cn(C(C)C)nc2C)c(=O)n4C)cnc1N [Example 168.1, 8-(6-Amino-5-methoxymethyl-pyridin-3-yl)-1-(1-isopropyl-3-methyl-1H-pyrazol-4-yl)-3-methyl-1,3-dihydro-imidazo[4,5-c]quinolin-2-one] |
| 5 | 14 | 22 | CCNc1cncc(-c2ccc3ncc4c(c3c2)n(-c2cn(C)nc2C)c(=O)n4C)c1 [Example 122, 1-(1,3-Dimethyl-1H-pyrazol-4-yl)-8-(5-ethylamino-pyridin-3-yl)-3-methyl-1,3-dihydro-imidazo[4,5-c]quinolin-2-one] |
| 5 | 41 | 42 | CCn1cc(-n2c(=O)n(C)c3cnc4ccc(-c5cncc(NC)c5)cc4c32)c(C)n1 [Example 180.1, 1-(1-Ethyl-3-methyl-1H-pyrazol-4-yl)-3-methyl-8-(5-methylamino-pyridin-3-yl)-1,3-dihydro-imidazo[4,5-c]quinolin-2-one] |
| 4 | 8 | 56 | CNC(=O)c1ccc(-c2ccc3ncc4c(c3c2)n(-c2cn(C)nc2Cl)c(=O)n4C)cc1 [Example 43.2, 4-[1-(3-Chloro-1-methyl-1H-pyrazol-4-yl)-3-methyl-2-oxo-2,3-dihydro-1H-imidazol[4,5-c]quinolin-8-yl]-N-methyl-benzamide] |
| 6 | 9 | 11 | Cc1nn(C)cc1-n1c(=O)n(C)c2cnc3ccc(-c4cncc(OC(CF)CF)c4)cc3c21 [Example 182, 1-(1,3-Dimethyl-1H-pyrazol-4-yl)-8-[5-(2-fluoro-1-fluoromethyl-ethoxy)-pyridin-3-yl]-3-methyl-1,3-dihydro-imidazo[4,5-c]quinolin-2-one] |
| < 3 | 14 | 17 | CNc1cc(-c2ccc3ncc4c(c3c2)n(-c2cn(C)nc2Cl)c(=O)n4C)cnc1COC [Example 160.1, 1-(3-Chloro-1-methyl-1H-pyrazol-4-yl)-8-(6-methoxymethyl-5-methylamino-pyridin-3-yl)-3-methyl-1,3-dihydro-imidazo[4,5-c]quinolin-2-one] |

From patent US20140005163A1 (NOVARTIS AG, priority 2010, published 2014)
